Holding throughout (format): cell-based
Assay [1] has as its system Pseudomonas aeruginosa ATCC 27853. Kind of assay: microbe, parasite or virus in culture. The conditions noted are these: µM equivalent of Table 3; read-out: MIC P. aeruginosa ATCC. The method, then:
(§1) Antimicrobial testing of 78 cathelicidin MPs was performed in two phases as outlined in Figure 1 . In phase I, 40 peptides (27 extant and 13 ancestral) were selected for testing based on rank (outlined above) and similarity to published marsupial cathelicidins with known antimicrobial activity ([33], [41]–[43]). These peptides were tested against nine bacteria (Staphylococcus aureus ATCC 29213 and clinical isolate, Escherichia coli ATCC 25922 and clinical isolate, Pseudomonas aeruginosa ATCC 27853 and clinical isolate, Streptococcus agalactiae ATCC 12386 and clinical isolate, Streptococcus pneumoniae ATCC 49619) and three fungi (Candida krusei ATCC 6258, Candida parapsilosis ATCC 22019, and Candida albicans clinical isolate). Details regarding these strains are available in Supplementary Table 4 . The antimicrobial activity of cathelicidins was determined as the minimum inhibitory concentration (MIC), which was the lowest concentration of cathelicidin that prevented visible bacterial or fungal growth, relative to the negative control. […] Minimum bactericidal concentration (MBC) and/or minimum fungicidal concentration (MFC) was conducted to determine microbicidal versus static action. Activity against S. aureus ATCC, E. coli ATCC, and Pseudomonas aeruginosa ATCC 27853 was examined in the presence of divalent cations to determine the impact of inhibitors.
(§2) In phase II, the remaining 38 peptides (37 extant and one ancestral) were tested against six bacteria (S. aureus ATCC and clinical isolate, E. coli ATCC and clinical isolate, and P. aeruginosa ATCC and clinical isolate). […] No further testing on phase II peptides was performed. Detailed methods for all assays are provided in subsequent sections.
(§3) Antimicrobial activity was determined using a broth microdilution susceptibility assay in 96 well polypropylene plates according to Clinical Laboratory Standards Institute guidelines M07-A and M26A as described previously ([33], [42], [43]). The bacterial and fungal isolates from humans and animals used in this study are outlined in Supplementary Table 4 . Only yeasts were included in the panel of fungi as they have been used in the susceptibility testing of eutherian ([3], [81]–[83]) and other marsupial cathelicidins previously ([33], [42], [43]). Cathelicidin mature peptides were solubilized in DMSO and serially diluted in duplicate from 128-0.25μg/mL in a final volume of 100µL. For bacteria, cathelicidins were diluted in Mueller Hinton Broth (MHB) with or without 10% lysed horse blood, and with (MH II B) or without (MHB) calcium and magnesium cations. For fungi, cathelicidins were diluted in Roswell Park Memorial Institute medium (RPMI)-1640 MOPS. Ampicillin or tetracycline were included as a positive control for Gram-positive and -negative bacteria respectively, while amphotericin B was used for fungi. A media-only negative control and growth control (no cathelicidin) were also included on each plate. Bacteria were sub-cultured on Muller Hinton agar (MHA) or sheep blood agar (BA), and fungi on Sabouraud dextrose agar (SAB), 20–24 hours prior to the test. Colonies were suspended in saline, the concentration adjusted to a 0.5 McFarland standard, and then diluted in media to a concentration of 1.0 x 10^6 cells/mL. Then, 100μL was added to each well of the cathelicidin dilution plate, giving a final inoculum density of 5 x 10^5 CFU/mL and cathelicidin concentration of 64-0.125μg/mL. Colony counts were performed on MHA/BA/SAB to confirm inoculum density. All plates were incubated at 35°C for 20–24 hours, depending on the strain.
(§4) Colonies were counted and compared to the colony count of the starting inoculum.

Assay [2] has as its system Staphylococcus aureus ATCC 29213. Kind of assay: microbe, parasite or virus in culture. The conditions noted are these: µM equivalent of Table 3. The method, then:
as §1, §2, §3, §4

For assay [3], the system named is Escherichia coli ATCC 25922. The assay is described as follows: microbe, parasite or virus in culture. The conditions noted are these: µM equivalent of Table 3; for MBC E. coli ATCC: value in brackets. The protocol:
as §1, §2, §3, §4

Assay [4] deals with Staphylococcus aureus clinical isolate - animal. The assay is described as follows: microbe, parasite or virus in culture. The conditions noted are these: clinical isolate, µM equivalent of Table 3. The method, then: as §1, §2, §3, §4
Assay [5] deals with Pseudomonas aeruginosa clinical isolate - animal. The assay is described as follows: microbe, parasite or virus in culture. The conditions noted are these: clinical isolate; µM equivalent of Table 3; read-out: MIC P. aeruginosa. The protocol:
as §1, §2, §3, §4

The subject of assay [6] is Escherichia coli clinical isolate - animal. Kind of assay: microbe, parasite or virus in culture. The conditions noted are these: clinical isolate, µM equivalent of Table 3. The protocol:
as §1, §2, §3, §4

For assay [7], the system named is six bacteria (S. aureus, E. coli, P. aeruginosa; ATCC and clinical isolate). The conditions noted are these: broth microdilution screening, phase I or II; Y/N summary over the bacteria tested; synthesized mature peptide. The method, then:
as §1, §2, §3, §4

Consider “KKTRTKPKNSIRRRIKGFGIGTIILVPL [MagiCath6, predicted eastern grey kangaroo cathelicidin mature peptide]”, for which the MIC in assay [1] and in assay [5] was over 17.6 µM each time. For the same sequence, the MBC S. aureus ATCC in assay [2] (value in brackets) turned out to be 17.6 µM. The MIC S. aureus ATCC in assay [2] amounted to 17.6 µM. The MBC E. coli ATCC in assay [3] amounted to 8.8 µM. In addition, in assay [3], the MIC E. coli ATCC amounted to 8.8 µM. The MBC S. aureus in assay [4] (value in brackets) was found to be 17.6 µM. In addition, in assay [4], the MIC S. aureus was 17.6 µM. Further, the MBC E. coli in assay [6] (value in brackets) is 17.6 µM. Also, the MIC E. coli in assay [6] came to 17.6 µM. Also, the “Antibacterial (MIC <64ug/mL)” value in assay [7] is listed as “Y (Antibacterial (MIC <64ug/mL))”.
Consider “RTLLRRVGEKVKTRFIAALEKLIDTFLP [MagiCath3, predicted eastern grey kangaroo cathelicidin mature peptide]”, for which the MIC in assay [1], in assay [2] (read-out: MIC S. aureus ATCC), in assay [4] (read-out: MIC S. aureus), in assay [5] and in assay [6] was over 14.3 µM each time. For the same sequence, the MBC E. coli ATCC in assay [3] is over 14.3 µM. Further, the MIC E. coli ATCC in assay [3] stood at 14.3 µM. The “Antibacterial (MIC <64ug/mL)” value in assay [7] was “Y (Antibacterial (MIC <64ug/mL))”.

For the origin of these results see publication PMC12006171, “Marsupial cathelicidins: characterization, antimicrobial activity and evolution in this unique mammalian lineage” (Frontiers in Immunology, 2025).
